This passage reports IC50 results from patent US5416099A, “Fibrinogen receptor antagonists” (Merck & Co., Inc., priority 1993, dated 1995).

As a reminder, the IC50 is the point on the concentration scale where inhibition reaches its midpoint.

The subject of the test is Human platelets. Kind of test: ADP-stimulated platelet aggregation assay (gel-filtered human platelets). The following applies: fibrinogen 100 μg/ml, Ca^2+ 1 mM, 10 uM ADP, 37° C., read-out: platelet aggregation inhibition potency, IC50. The test is classed as cell-based. On the procedure:
An ADP-stimulated platelet aggregation assay was used to determine inhibition associated with compounds of the invention.
Human platelets were isolated from fresh blood, collected into acid citrate/dextrose by differential centrifugation followed by gel filtration on Sepharose 2B in divalent ion-free Tyrode's buffer (pH 7.4) containing 2% bovine serum albumin. Platelet aggregation was measured at 37° C. in a a Chronolog aggregometer. The reaction mixture contained gel-filtered human platelets (2×10^8 per ml), fibrinogen (100 μg/ml), Ca^2+ (1 mM), and the compound to be tested. Aggregation was initiated by adding 10 uM ADP 1 minute after the other components had been added. The reaction was allowed to proceed for at least 2 minutes. The extent of inhibition of aggregation was expressed as the percentage of the rate of aggregation observed in the absence of inhibitor. The IC50 is the dose of a particular compound inhibiting aggregation by 50% relative to a control lacking the compound.

Regarding `O=C(O)CCNC(=O)c1ccc2c(c1)C(=O)N(CCCC1CCNCC1)C2`, the IC50 was found to be 0.92 µM. For `O=C(O)CNC(=O)c1ccc2c(c1)C(=O)N(CCCC1CCNCC1)C2` the value was 14 µM.
